Test results as given in US8895504B2, “Amylin derivatives” (priority 2008, dated 2014).
*1 amine or outer side, *2 acyl side, *3 side chain or, on linkers, in order; H or OH if unused. Where a SMILES comes first, the peptide text is derived from it. Bridges are numbered along the chain shown (N, C = ends). The star is where a group is joined. C20 diacid = O=C(O)CCCCCCCCCCCCCCCCCCC(=O)*; γGlu = O=C(O)[C@H](CCC(=O)[*:2])N[*:1]

Assay: Assay (V) PK - determination of T½ in mini-pig
Assay type: in vivo
Settings: minipig, sc; terminal plasma half-life, subcutaneous, approx 2 nmol/kg, male Göttingen mini-pigs
How it was run: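 Male Göttingen mini-pigs (5–12 months, 7–35 kg) got a single s.c. neck injection of approx 2 nmol/kg; plasma sampled via central venous catheter predose to 240 h (some to 288 h). Amylin measured by sandwich ELISA; T½ = ln 2/λz from non-compartmental analysis of individual profiles.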

- half-life: 60 h
SMILES: CC[C@H](C)[C@H](NC(=O)[C@@H]1CCCN1C(=O)CNC(=O)[C@H](Cc1ccccc1)NC(=O)[C@H](CC(N)=O)NC(=O)[C@H](CC(N)=O)NC(=O)[C@H](CO)NC(=O)[C@H](CO)NC(=O)[C@H](Cc1c[nH]cn1)NC(=O)[C@H](Cc1c[nH]cn1)NC(=O)[C@H](CC(C)C)NC(=O)[C@H](Cc1ccccc1)NC(=O)[C@H](CC(N)=O)NC(=O)[C@H](C)NC(=O)[C@H](CC(C)C)NC(=O)[C@H](CCCNC(=N)N)NC(=O)[C@H](CCC(N)=O)NC(=O)[C@@H](NC(=O)[C@H](C)NC(=O)[C@@H]1CSSC[C@H](NC(=O)[C@H](Cc2c[nH]cn2)NC(=O)[C@H](Cc2c[nH]cn2)NC(=O)[C@H](Cc2c[nH]cn2)NC(=O)CC[C@H](NC(=O)CCCCCCCCCCCCCCCCCCC(=O)O)C(=O)O)C(=O)N[C@@H](CC(N)=O)C(=O)N[C@@H]([C@@H](C)O)C(=O)N[C@@H](C)C(=O)N[C@@H]([C@@H](C)O)C(=O)N1)[C@@H](C)O)C(=O)N[C@@H](CC(C)C)C(=O)N1CCC[C@H]1C(=O)N1CCC[C@H]1C(=O)N[C@H](C(=O)N[C@@H](CC(N)=O)C(=O)N[C@H](C(=O)NCC(=O)N[C@@H](CO)C(=O)N[C@@H](CC(N)=O)C(=O)N[C@H](C(=O)N[C@@H](Cc1ccc(O)cc1)C(N)=O)[C@@H](C)O)C(C)C)[C@@H](C)O [Example 39, N-alpha-[(S)-4-Carboxy-4-(19-carboxynonadecanoylamino)butyryl]-His-His-[His1,His17]-pramlintide] ({C20 diacid-γGlu}-HHHCNTATCATQRLANFLHHSSNNFGPILPPTNVGSNTY-NH2; disulfide 4-9)
